Laboratory results taken from US20240197761A1, “FUCOSYLATION AND IMMUNE MODULATION IN CANCER” (H. LEE MOFFITT CANCER CENTER AND RESEARCH INSTITUTE, INC., priority 2021, published 2024).

System: SW1 tumors
Test: Control vs. L-fucose ± FTY720 model: tumor growth and flow cytometric profiling of tumors and lymph nodes (Table 1)
Assay type: in vivo, C3H/HeN mice
Description: FIGS. 15A-15E Lymph node egress is necessary for L-fucose-triggered tumor suppression; L-fucose increases intratumoral CD4+T stem and central memory cells. (a) Immune subpopulations markers use to profile by flow cytometry. (b) Volumetric growth curves for SW1 tumors in C3H/HeN mice fed without (Ctl) or with L-fucose (LF) and treated with FTY720 (Ctl mice administered FTY720: (FTY); LF-supplemented mice administered FTY720: (L+F)). FTY720 was administered at 20 μg per mouse every 2 days starting on Day 12, just prior to the initiation of LF (c) Pie charts showing ratios of intratumoral or lymph node-resident CD4+ or CD8+T cell subpopulations, as well as DC subtypes from mice at Day 14, 28, and 42 (each pie chart represents 4-5 mice). Assessment of cytotoxic CD4+ T cell populations (CRTAM+) and cytotoxic CD8+ T cell populations (GrzB+) from tumors at Day 28 (d) and Day 42 (e). The tumor growth curves are means±SEM from ≥7 mice per group. *=p<0.05.
Tumors of SW1 or SM1 melanoma cells from […] or C57BL/6 mice, respectively) were digested using 1× tumor digest buffer (0.5 mg/mL Collagenase I, 0.5 mg/mL Collagenase IV, 0.25 mg/mL Hyalyronidase V, 0.1 mg/mL DNAse I in HBSS (Millipore Sigma (St. Louis, MO)). Tumors were homogenized using the Miltenyi MACs dissociator. Red blood cells were lysed using ACK lysis buffer (Life Technologies, (Grand Island, NY)). Tumor homogenate cells were counted using a standard hemocytometer.
Total TILs were gated first to single cells (based on forward scatter height vs width, followed by side scatter height vs. width). Live cells were gated from the Zombie negative population from the population above. TILs were gated based on splenocyte size from a control spleen. Individual immune subpopulations were sub-gated from the total TIL population using the following staining criteria: CD3+ for CD3+ T cells; CD3+/CD4+/CD8− for CD4+T cells; CD3+/CD4−/CD8+ for CD8+ T cells, CD11c+/CD11b+ for DCs; either NK1.1 (for C57/BL6 mice) or DX5 (for C3H/HeJ) for NK cells; CD11b+/GR1+ for MDSC-like cells; and F4/80+ for macrophages. Single-cell suspensions from tumor and spleen tissue were stained with Live/Dead Zombie NIR (Biolegend, (San Diego, CA)) at 1:1,000 in PBS for 20 min. Cell suspensions were spun down and stained with the following with antibodies at 0.5 μg/ml per antibody: APC anti-mouse CD3, Pacific Blue anti-mouse CD4, BV785 anti-mouse CD8, PerCP anti-mouse CD25, FITC anti-mouse F4/80, PeCy7 anti-mouse CD11c, PE anti-mouse NK1.1 or PE anti-mouse DX5, and PerCP-Cy5.5 anti-mouse CD11 b. After staining, the cells were washed and fixed (2% formaldehyde), followed by another wash and flow cytometric analysis. The compensation controls were prepared using 0.5 μg/mL of each antibody with UltraComp eBeads, (ThermoFisher Scientific (Waltham, MA)). All samples were subject to flow cytometric profiling using a LSR Flow Cytometer (BD Biosciences (San Jose, CA)) and analysis as indicated using FlowJo software (BD Biosciences (San Jose, CA)).
SW1 or SM1 mouse melanoma cells were injected into syngeneic C3H/HeN (or NSG) female or C57BL/6 male mice, respectively. Cells were injected as follows: parental SW1 cells for FIG. 13A; parental SM1 cells for FIG. 13E; SW1 cells stably expressing either empty vector (EV) or mouse fucose kinase (mFuk) for FIG. 1L; and parental SW1 cells for FIG. 13M. FTY720 was administered at 20 μg every 2 days starting on Day 12, just prior to the initiation of LF, until endpoint.

## C[C@H](O)[C@@H](O)[C@@H](O)[C@H](O)C=O [L-fucose]
Day 28
  cytotoxic CD4+T cells (CRTAM+): transiently but significantly increased
Day 28, lymph nodes
  CD4 central memory, average # of cells: 2289.20 per 10^6 cells of total tumor
  CD4 effector memory, average # of cells: 445.15 per 10^6 cells of total tumor
  CD4 naïve, average # of cells: 9286.89 per 10^6 cells of total tumor
  CD4 stem central memory, average # of cells: 53601.81 per 10^6 cells of total tumor
  CD8 central memory, average # of cells: 295.92 per 10^6 cells of total tumor
  CD8 effector memory, average # of cells: 888.80 per 10^6 cells of total tumor
  CD8 naïve, average # of cells: 18072.26 per 10^6 cells of total tumor
  CD8 stem central memory, average # of cells: 980.96 per 10^6 cells of total tumor
  cDC1, average # of cells: 359.10 per 10^6 cells of total tumor
  cDC2, average # of cells: 743.69 per 10^6 cells of total tumor
  moDC, average # of cells: 37.66 per 10^6 cells of total tumor
Day 28, tumors
  CD4 central memory, average # of cells: 6.04 per 10^6 cells of total tumor
  CD4 effector memory, average # of cells: 568.19 per 10^6 cells of total tumor
  CD4 naïve, average # of cells: 30.44 per 10^6 cells of total tumor
  CD4 stem central memory, average # of cells: 5.59 per 10^6 cells of total tumor
  CD8 central memory, average # of cells: 1.24 per 10^6 cells of total tumor
  CD8 effector memory, average # of cells: 108.29 per 10^6 cells of total tumor
  CD8 naïve, average # of cells: 34.60 per 10^6 cells of total tumor
  CD8 stem central memory, average # of cells: 0.00 per 10^6 cells of total tumor
  cDC1, average # of cells: 2301.44 per 10^6 cells of total tumor
  cDC2, average # of cells: 10732.04 per 10^6 cells of total tumor
  moDC, average # of cells: 20903.90 per 10^6 cells of total tumor
Day 42, lymph nodes
  CD4 central memory, average # of cells: 1741.12 per 10^6 cells of total tumor
  CD4 effector memory, average # of cells: 5032.79 per 10^6 cells of total tumor
  CD4 naïve, average # of cells: 105779.76 per 10^6 cells of total tumor
  CD4 stem central memory, average # of cells: 1587.46 per 10^6 cells of total tumor
  CD8 central memory, average # of cells: 1741.12 per 10^6 cells of total tumor
  CD8 effector memory, average # of cells: 5032.79 per 10^6 cells of total tumor
  CD8 naïve, average # of cells: 105779.76 per 10^6 cells of total tumor
  CD8 stem central memory, average # of cells: 1587.46 per 10^6 cells of total tumor
  cDC1, average # of cells: 2141.34 per 10^6 cells of total tumor
  cDC2, average # of cells: 4375.69 per 10^6 cells of total tumor
  moDC, average # of cells: 1201.44 per 10^6 cells of total tumor
Day 42, tumors
  CD4 central memory, average # of cells: 38.18 per 10^6 cells of total tumor
  CD4 effector memory, average # of cells: 111.09 per 10^6 cells of total tumor
  CD4 naïve, average # of cells: 82.01 per 10^6 cells of total tumor
  CD4 stem central memory, average # of cells: 16.67 per 10^6 cells of total tumor
  CD8 central memory, average # of cells: 13.46 per 10^6 cells of total tumor
  CD8 effector memory, average # of cells: 246.44 per 10^6 cells of total tumor
  CD8 naïve, average # of cells: 109.29 per 10^6 cells of total tumor
  CD8 stem central memory, average # of cells: 0.00 per 10^6 cells of total tumor
  cDC1, average # of cells: 648.96 per 10^6 cells of total tumor
  cDC2, average # of cells: 78.44 per 10^6 cells of total tumor
  moDC, average # of cells: 169.08 per 10^6 cells of total tumor
FIG. 15c
  intratumoral CD4+T central and effector memory subpopulations: increases
  intratumoral monocyte-derived DCs (moDCs): significantly increased
  lymph node cDC2s: significantly increased
With FTY720 (inhibition of lymph node egress)
  L-fuc-triggered tumor suppression: completely abrogated
